Experimental findings from patent US11554171B2, “Compounds and methods for the targeted degradation of bromodomain-containing proteins” (Arvinas Operations, Inc., priority 2015, dated 2023) are described below.

The subject of this test is c-myc in 22RV-1 cells. Put plainly: Human c-myc ELISA assay. Conditions: Homo sapiens; for Emax: 22Rv1, 18 h, read-out: Degradation of BRD4: Maximum inhibition (%) c-Myc ELISA in 22RV1 cells; for DC50: 22Rv1, read-out: Degradation of BRD4: DC50 (uM) c-Myc ELISA in 22RV1 cells. In kind it is cell-based. As to the method:
22RV-1 cells are seeded at 30,000 cells/well at a volume of 75 μL/well in RPMI+10% FBS media in 96-well plates and grown overnight at 37 C. Cells are dosed with compounds at 4× concentration diluted in 0.4% DMSO; compounds are serially diluted 1:3 for 8-point dose curve. 25 ul of compounds is added to cells for a final concentration starting at 300 nM-0.3 nM or 1 uM-1 nM in 0.1% DMSO and incubated for 18 hrs. Media is aspirated, cells washed 1× with PBS and aspirated. Cells are lysed in 50 ul RIPA buffer (50 mM Tris pH8, 150 mM NaCl, 1% Tx-100, 0.1% SDS, 0.5% sodium deoxycholate) supplemented with protease and phosphatase inhibitors. Plates are incubated on ice for 15 minutes then centrifuged at 4 C for 10 min at 4000 rpm. Add 50 ul of cleared lysate from 96-well assay plate into 96-well c-myc ELISA plate (Novex, Life Technologies Catalog #KH02041). Reconstitute c-myc standard with standard diluent buffer; standard curve range is 333 pg/ml-0 pg/ml, diluted 1:2 for 8-point dose curve. The rest of the assay was performed following the protocol from the c-myc ELISA kit. Data is analyzed and plotted using GraphPad Prism software. Compounds described in this application were assayed and c-myc suppression potency is listed in the following Table (A: DC50<10 nM; B: DC50 10-100 nM; C: DC50: 100-1000 nM; D: DC50>1000 nM)
In general terms: An ELISA detects its analyte on a solid surface through an enzyme-linked reagent.

Where only a bound is given, the exact number is not on record here.

As a reminder, the DC50 is the concentration giving 50% degradation.

With `Cc1ncsc1-c1ccc([C@H](C)NC(=O)[C@@H]2C[C@@H](O)CN2C(=O)[C@@H](NC(=O)COc2ccc(OCCNC(=O)C[C@@H]3N=C(c4ccc(Cl)cc4)c4c(sc(C)c4C)-n4c(C)nnc43)nc2)C(C)(C)C)cc1` [Example 128, (2S,4R)-1-[(2S)-2-(2-{[6-(2-{2-[(9S)-7-(4-chlorophenyl)-4,5,13-trimethyl-3-thia-1,8,11,12-tetraazatricyclo[8.3.0.0^2,^6]trideca-2(6),4,7,10,12-pentaen-9-yl]acetamido}ethoxy)pyridin-3-yl]oxy}acetamido)-3,3-dimethylbutanoyl]-4-hydroxy-N-[(1S)-1-[4-(4-methyl-1,3-thiazol-5-yl)phenyl]ethyl]pyrrolidine-2-carboxamide], the Emax stood at 100% and the DC50 was less than 0.01 µM.
For `CC(=O)N[C@H](C(=O)N1C[C@H](O)C[C@H]1C(=O)NCc1ccc(-c2scnc2C)cc1OCCOCCOc1ccc(C2=NC(CC(=O)Nc3ccccc3)c3nnc(C)n3-c3sc(C)c(C)c32)cc1)C(C)(C)C` (stereo partly drawn) [Example 149], the Emax is 57.3% and the DC50 fell in the range of 0.1 to 1 µM.
With `Cc1ncsc1-c1ccc(CNC(=O)[C@@H]2C[C@@H](O)CN2C(=O)[C@@H](NC(=O)COCCCOCCNC(=O)C[C@H]2N=C(c3ccc(Cl)cc3)c3c(sc(C)c3C)-n3c(C)nnc32)C(C)(C)C)cc1` [Example 106], the Emax was less than 5% and the DC50 is more than 1 µM.
Regarding `Cc1ncsc1-c1ccc(CNC(=O)[C@@H]2C[C@@H](O)CN2C(=O)[C@@H](C(C)C)n2cc(-c3ccnc(O[C@H]4C[C@H](NC(=O)C[C@@H]5N=C(c6ccc(Cl)cc6)c6c(sc(C)c6C)-n6c(C)nnc65)C4)c3)cn2)cc1` [Example 225, (2S,4R)-4-hydroxy-N-{[4-(4-methyl-1,3-thiazol-5-yl)phenyl]methyl}-1-[(2R)-3-methyl-2-(4-{2-[(1,3trans)-3-{2-[(9 S)-7-(4-chlorophenyl)-4,5,13-trimethyl-3-thia-1,8,11, 12-tetraazatricyclo[8.3.0.0^2,^6]trideca-2(6),4,7,10,12-pentaen-9-yl]acetamido}cyclobutoxy]pyridin-4-yl}-1H-pyrazol-1-yl)butanoyl]pyrrolidine-2-carboxamide], the Emax came to 50.4% and the DC50 is more than 1 µM.
For the molecule `Cc1ncsc1-c1ccc([C@H](C)NC(=O)[C@@H]2C[C@@H](OC(=O)CC(C)(C)N)CN2C(=O)[C@@H](NC(=O)c2cc3cc(O[C@H]4C[C@@H](NC(=O)C[C@@H]5N=C(c6ccc(Cl)cc6)c6c(sc(C)c6C)-n6c(C)nnc65)C4)ccc3o2)C(C)(C)C)cc1` [Example 343], the Emax worked out at 87% and the DC50 fell in the range of 0.01 to 0.1 µM.
The matching figures for `Cc1ncsc1-c1ccc(CNC(=O)[C@@H]2C[C@@H](O)CN2C(=O)[C@@H](NC(=O)COc2ccccc2O[C@H]2C[C@@H](NC(=O)C[C@@H]3N=C(c4ccc(Cl)cc4)c4c(sc(C)c4C)-n4c(C)nnc43)C2)C(C)(C)C)cc1` [Example 190]: 91% and 0.01 to 0.1 µM.
As to `Cc1ncsc1-c1ccc([C@H](C)NC(=O)[C@@H]2C[C@@H](O)CN2C(=O)[C@@H](NC(=O)COC[C@H](O)CN2CCN(C(=O)C[C@@H]3N=C(c4ccc(Cl)cc4)c4c(sc(C)c4C)-n4c(C)nnc43)CC2)C(C)(C)C)cc1` [Example 328], the Emax turned out to be 61% and the DC50 fell in the range of 0.1 to 1 µM.
As to `Cc1sc2c(c1C)C(c1ccc(Cl)cc1)=N[C@@H](CC(=O)N[C@H]1C[C@H](Oc3ccc(CC(=O)N[C@H](C(=O)N4C[C@H](O)C[C@H]4C(=O)N[C@@H](C)c4ccc(-c5ncon5)cc4)C(C)(C)C)cc3)C1)c1nnc(C)n1-2` [Example 281], the Emax came out at 91.4% and the DC50 lay in the range of 0.01 to 0.1 µM.
Turning to `Cc1ncsc1-c1ccc([C@H](C)NC(=O)[C@@H]2C[C@@H](O)CN2C(=O)[C@@H](NC(=O)Cc2cccc(O[C@H]3C[C@H](NC(=O)C[C@@H]4N=C(c5ccc(Cl)cc5)c5c(sc(C)c5C)-n5c(C)nnc54)C3)c2)C(C)(C)C)cc1` [Example 194], the Emax is 92.4% and the DC50 is less than 0.01 µM.
On to `Cc1ncsc1-c1ccc(CNC(=O)[C@@H]2C[C@@H](O)CN2C(=O)[C@@H](NC(=O)COCCN2CCN(c3ccc([C@H](C)NC(=O)C[C@@H]4N=C(c5ccc(Cl)cc5)c5c(sc(C)c5C)-n5c(C)nnc54)cc3)CC2)C(C)(C)C)cc1` [Example 58, (2S,4R)-1-[(2S)-2-{2-[2-(4-{4-[(1S)-1-{2-[(9S)-7-(4-chlorophenyl)-4,5,13-trimethyl-3-thia-1,8,11,12-tetraazatricyclo[8.3.0.0^2,^6]trideca-2(6),4,7,10,12-pentaen-9-yl]acetamido}ethyl]phenyl}piperazin-1-yl)ethoxy]acetamido}-3,3-dimethylbutanoyl]-4-hydroxy-N-{[4-(4-methyl-1,3-thiazol-5-yl)phenyl]methyl}pyrrolidine-2-carboxamide], for which the Emax was determined as 88% and the DC50 lay within 0.1 to 1 µM.
Regarding `Cc1ncsc1-c1ccc(CNC(=O)[C@@H]2C[C@@H](O)CN2C(=O)[C@@H](NC(=O)COCCOCCOCCOCCOCCNC(=O)C[C@@H]2N=C(c3ccc(Cl)cc3)c3c(sc(C)c3C)-n3c(C)nnc32)C(C)(C)C)cc1` [Example 7], the Emax was found to be 93% and the DC50 was 0.1 to 1 µM.
As to `Cc1ncsc1-c1ccc(CNC(=O)[C@@H]2C[C@@H](O)CN2C(=O)[C@@H](NC(=O)COc2ccc(O[C@H]3C[C@H](NC(=O)C[C@@H]4N=C(c5ccc(Cl)cc5)c5c(sc(C)c5C)-n5c(C)nnc54)C3)nc2)C(C)(C)C)cc1` [Example 140], the Emax was 98% and the 50% degradation concentration (DC50) was less than 0.01 µM.
Turning to `Cc1ncsc1-c1ccc(CNC(=O)[C@@H]2C[C@@H](O)CN2C(=O)[C@H](c2cc(OCCCCCNC(=O)C[C@@H]3N=C(c4ccc(Cl)cc4)c4c(sc(C)c4C)-n4c(C)nnc43)no2)C(C)C)cc1` [Example 120], the Emax came to 79.5% and the DC50 lay within 0.1 to 1 µM.
As for `Cc1ncsc1-c1ccc([C@H](C)NC(=O)[C@@H]2C[C@@H](O)CN2C(=O)[C@@H](NC(=O)c2cc3ccc(O[C@@H](C)CNC(=O)C[C@@H]4N=C(c5ccc(Cl)cc5)c5c(sc(C)c5C)-n5c(C)nnc54)cc3o2)C(C)(C)C)cc1` [Example 221, (2S,4R)-1-[(2S)-2-[(6-{[(2S)-1-{2-[(9S)-7-(4-chlorophenyl)-4,5,13-trimethyl-3-thia-1,8,11,12-tetraazatricyclo[8.3.0.0^2,^6]trideca-2(6),4,7,10,12-pentaen-9-yl]acetamido}propan-2-yl]oxy}-1-benzofuran-2-yl)formamido]-3,3-dimethylbutanoyl]-4-hydroxy-N-[(1S)-1-[4-(4-methyl-1,3-thiazol-5-yl)phenyl]ethyl]pyrrolidine-2-carboxamide], the Emax came out at 100% and the DC50 was less than 0.01 µM.
`Cc1ncsc1-c1ccc([C@H](C)NC(=O)[C@@H]2C[C@@H](O)CN2C(=O)[C@@H](C(C)C)n2cc(-c3cccc(O[C@H]4C[C@H](NC(=O)C[C@@H]5N=C(c6ccc(Cl)cc6)c6c(sc(C)c6C)-n6c(C)nnc65)C4)c3)cn2)cc1` [Example 244]: the Emax was found to be 95.5% and the DC50 fell in the range of 0.01 to 0.1 µM.
As to `Cc1ncsc1-c1ccc(CNC(=O)[C@@H]2C[C@@H](O)CN2C(=O)[C@@H](NC(=O)COCCCOc2ccc([C@@H](C)NC(=O)C[C@@H]3N=C(c4ccc(Cl)cc4)c4c(sc(C)c4C)-n4c(C)nnc43)cc2)C(C)(C)C)cc1` [Example 65], the Emax was determined as 95.4% and the DC50 lay within 0.01 to 0.1 µM.
For the molecule `Cc1ncsc1-c1ccc([C@H](C)NC(=O)[C@@H]2C[C@@H](O)CN2C(=O)[C@@H](NC(=O)c2cc3cc(O[C@H]4C[C@@H](NC(=O)C[C@@H]5N=C(c6ccc(Cl)cc6)c6c(sc(C)c6C)-n6c(C)nnc65)C4)ccc3o2)C(C)C)cc1` [Example 336], the Emax came out at 98% and the DC50 is less than 0.01 µM.
In the same order, the values of `Cc1ncsc1-c1ccc([C@H](CO)NC(=O)[C@@H]2C[C@@H](O)CN2C(=O)[C@@H](NC(=O)CN2CCC(O[C@H]3C[C@H](NC(=O)C[C@@H]4N=C(c5ccc(Cl)cc5)c5c(sc(C)c5C)-n5c(C)nnc54)C3)CC2)C(C)(C)C)cc1` [Example 351, (2S,4R)-1-[(2S)-3,3-dimethyl-2-(2-{4-[(1,3-trans)-3-{2-[(9S)-7-(4-chlorophenyl)-4,5,13-trimethyl-3-thia-1,8,11,12-tetraazatricyclo[8.3.0.0^2,^6]trideca-2(6),4,7,10,12-pentaen-9-yl]acetamido}cyclobutoxy]piperidin-1-yl}acetamido)butanoyl]-4-hydroxy-N-[(1R)-2-hydroxy-1-[4-(4-methyl-1,3-thiazol-5-yl)phenyl]ethyl]pyrrolidine-2-carboxamide] are 100% and less than 0.01 µM.
